This note sets out measurements from patent US20100075965A1, “PI3 KINASE INHIBITORS AND METHODS OF THEIR USE” (Novartis AG, priority 2006, published 2010).

Read-outs that look alike come from different tables or passages of the source.

Experiment [1] concerns the target PI3 K Alpha (Homo sapiens, UniProt P42336). Put plainly: PI3 kinase phosphorylation assays (homogenous solution phase, one step solid phase, ATP depletion/KinaseGlo). It counts as biochemical. The method, then:
Compounds to be tested are dissolved in DMSO and directly distributed into 384-well flashplates at 1.25 μL per well. To start the reaction, 20 μL of 6 nM PI3 kinase are added into each well followed by 20 μL of 400 nM ATP containing a trace of radiolabeled ATP and 900 nM 1-alpha-phosphatidylinositol (PI). The plates are briefly centrifuged to remove any air gap. The reaction is performed for 15 minutes and then stopped by the addition of 20 μL of 100 mM EDTA. The stopped reaction is incubated overnight at RT to allow the lipid substrate to bind by hydrophobic interaction to the surface of the flashplate. The liquid in the wells is then washed away, and the labeled substrate is detected with scintillation counting.
This method is similar to Assay 1 except that the lipid substrate (1-alpha-phosphatidylinositol (PI)) is first dissolved in a coating buffer and incubated on flashplate at room temperature overnight to allow the lipid substrate to bind by hydrophobic interaction to the surface of the flashplate. Unbound substrate is then washed away. On the day of assay, 20 μL of 6 nM PI3 kinase are added into each well followed by 20 μL of 400 nM ATP containing trace of radiolabeled ATP. Compounds are added together with enzyme and ATP to the lipid-coated plates. The plates are briefly centrifuged to remove any air gap. The reaction is performed for two to three hours. The reaction is stopped by addition of 20 μL of 100 mM EDTA or by immediate plate washing. Phosphorylated lipid substrate is detected by scintillation counting.
Compounds to be tested are dissolved in DMSO and directly distributed into a black 384-well plate at 1.25 μL per well. To start the reaction, 25 μL of 10 nM PI3 kinase and 5 μg/mL 1-alpha-phosphatidylinositol (PI) are added into each well followed by 25 μL of 2 μM ATP. The reaction is performed until approx 50% of the ATP is depleted, and then stopped by the addition of 25 μL of KinaseGlo solution. The stopped reaction is incubated for 5 minutes and the remaining ATP is then detected via luminescence.
A general note: Kinase-Glo reads ATP consumption through a luciferase reaction.

For experiment [2], the system named is A2780 cells. Briefly: Viability assay in A2780 (Cell Titer Glo). In kind it is cell-based, human. The conditions noted are these: Homo sapiens, A2780 cells, read-out: A2780 Cell prolif. EC50. The method, then: Cell viability was assessed with Cell Titer Glo assay, Promega. Cells were seeded in TC treated 96-well plates at a density of 1,000 (A2780 cells) per well in DMEM with 10% FBS, 1% Sodium Pyruvate, and 1% Penicillin Streptomycin for a minimum of 2 hrs prior to addition of compound. Test compounds were serially diluted (3 fold) in DMSO to 500× the final concentration. For each concentration of test compound, 2 μL (500×) aliquots of compound or 100% DMSO (control) were diluted in 500 μL of culture medium to 2× final concentration then diluted 1× on the cells. Cells were incubated for 72 hrs at 37° C., 5% CO2. After which Cell Titer Glo is added to determine viable cells, the assay was performed according to the manufacturer's instruction (Promega Corporation, Madison, Wis. USA). Each experimental condition was performed in duplicate. Raw data was imported in Abase and EC50s calculated with XL-fit data analysis software and are shown in Tables 1 and 2 in the column labeled “A2780 Cell prolif. EC50”.

PI3 K Alpha, sequence (P42336 whole entry): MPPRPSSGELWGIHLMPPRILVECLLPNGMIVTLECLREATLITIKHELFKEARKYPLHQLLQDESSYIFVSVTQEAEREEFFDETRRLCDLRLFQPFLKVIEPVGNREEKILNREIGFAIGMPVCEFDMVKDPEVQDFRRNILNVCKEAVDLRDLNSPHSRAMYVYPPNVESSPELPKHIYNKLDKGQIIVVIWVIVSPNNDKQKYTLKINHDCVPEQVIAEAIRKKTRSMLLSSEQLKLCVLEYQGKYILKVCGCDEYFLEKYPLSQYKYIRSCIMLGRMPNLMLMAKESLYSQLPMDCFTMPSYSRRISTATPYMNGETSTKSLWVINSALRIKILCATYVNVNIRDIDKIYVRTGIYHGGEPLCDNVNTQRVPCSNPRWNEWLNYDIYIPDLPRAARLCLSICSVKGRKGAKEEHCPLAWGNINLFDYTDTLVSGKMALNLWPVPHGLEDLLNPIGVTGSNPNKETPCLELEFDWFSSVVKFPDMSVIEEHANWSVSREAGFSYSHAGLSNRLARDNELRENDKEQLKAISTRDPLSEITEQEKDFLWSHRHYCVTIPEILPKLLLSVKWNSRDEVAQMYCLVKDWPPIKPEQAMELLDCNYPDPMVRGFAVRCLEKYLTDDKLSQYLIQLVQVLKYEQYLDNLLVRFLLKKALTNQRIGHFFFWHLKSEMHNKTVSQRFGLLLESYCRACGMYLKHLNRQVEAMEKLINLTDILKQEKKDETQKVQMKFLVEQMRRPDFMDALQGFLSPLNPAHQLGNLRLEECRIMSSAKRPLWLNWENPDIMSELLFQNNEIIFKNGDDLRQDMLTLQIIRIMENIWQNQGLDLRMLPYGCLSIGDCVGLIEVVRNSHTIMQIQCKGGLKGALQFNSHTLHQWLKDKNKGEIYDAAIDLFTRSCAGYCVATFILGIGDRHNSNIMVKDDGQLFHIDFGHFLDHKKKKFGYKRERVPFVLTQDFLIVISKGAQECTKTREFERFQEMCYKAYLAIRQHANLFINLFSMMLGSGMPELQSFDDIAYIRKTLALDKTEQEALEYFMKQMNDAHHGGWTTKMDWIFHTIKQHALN
PI3 K Alpha, sequence (P27986 whole entry partner): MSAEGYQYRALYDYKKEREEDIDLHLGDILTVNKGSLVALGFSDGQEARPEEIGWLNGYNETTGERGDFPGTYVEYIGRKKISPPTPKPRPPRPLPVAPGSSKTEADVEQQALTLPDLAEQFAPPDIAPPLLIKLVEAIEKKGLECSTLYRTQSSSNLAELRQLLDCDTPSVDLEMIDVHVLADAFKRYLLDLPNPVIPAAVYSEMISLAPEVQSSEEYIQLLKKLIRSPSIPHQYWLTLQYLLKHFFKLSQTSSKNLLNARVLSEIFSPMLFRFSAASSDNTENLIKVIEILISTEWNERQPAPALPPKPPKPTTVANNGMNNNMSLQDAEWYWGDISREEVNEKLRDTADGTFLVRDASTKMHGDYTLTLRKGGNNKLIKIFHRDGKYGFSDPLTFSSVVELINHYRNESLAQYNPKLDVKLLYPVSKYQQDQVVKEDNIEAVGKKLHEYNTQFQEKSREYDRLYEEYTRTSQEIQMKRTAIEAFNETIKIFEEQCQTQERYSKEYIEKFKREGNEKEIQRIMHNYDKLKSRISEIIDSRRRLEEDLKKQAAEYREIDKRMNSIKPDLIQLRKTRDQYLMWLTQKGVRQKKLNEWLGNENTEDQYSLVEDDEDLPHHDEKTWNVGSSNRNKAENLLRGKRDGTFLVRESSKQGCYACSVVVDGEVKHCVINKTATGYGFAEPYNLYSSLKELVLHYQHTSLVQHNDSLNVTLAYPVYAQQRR

For `CC(=O)NC1CCN(C(=O)Nc2cn3cc(-c4cnc(N)c(C(F)(F)F)c4)ccc3n2)C1` (centres unmarked) [Example 146, 3-acetamido-N-(6-(6-amino-5-(trifluoromethyl)pyridin-3-yl)imidazo[1,2-a]pyridin-2-yl)pyrrolidine-1-carboxamide], the IC50 in experiment [1] (read-out: PI3K Alpha IC50) was under 1 µM. For the same compound, the half-maximal effective concentration (EC50) in experiment [2] is under 25 µM.
With `COc1cc(-c2ccc3nc(NC(C)=O)cn3n2)c(C)nc1N` [Example 43, N-(6-(6-amino-5-methoxy-2-methylpyridin-3-yl)imidazo[1,2-b]pyridazin-2-yl)acetamide], the IC50 in experiment [1] (read-out: PI3K Alpha IC50) was under 10 µM. For the same compound, the EC50 in experiment [2] is under 25 µM.
Consider `CC(=O)Nc1nc2ccc(-c3cnc(N)nc3C(F)(F)F)cc2s1` [Example 2-13, N-[6-(2-Amino-4-trifluoromethyl-pyrimidin-5-yl)-benzothiazol-2-yl]-acetamide], for which, in experiment [1] (ATP depletion assay, read-out: PI3 K Alpha IC50), the half-maximal inhibitory concentration (IC50) was under 1 µM. In experiment [2] (72 hrs), the concentration for a half-maximal effect (EC50) is under 25 µM.
For the compound `Nc1ncc(-c2ccc3nc(NC(=O)c4ccccn4)cn3c2)cc1C(F)(F)F` [Example 177], in experiment [1] (read-out: PI3K Alpha IC50), the IC50 was under 1 µM. For the same compound, the 50% effective concentration (EC50) in experiment [2] is under 25 µM.
The like results for `CO/N=C/c1cc(-c2ccc3nc(NC(C)=O)cn3c2)cnc1N` [Example 150, (E)-N-(6-(6-amino-5-((methoxy-imino)methyl)pyridin-3-yl)imidazo[1,2-a]pyridin-2-yl)acetamide] were, in that order, under 1 µM and under 25 µM.
Taken in the same sequence, the figures for `COCCOc1nc(-c2ccc3nc(NC(=O)CN4CCCCC4)cn3c2)cnc1N` [Example 202, N-(6-(5-amino-6-(2-methoxyethoxy)pyrazin-2-yl)imidazo[1,2-a]pyridin-2-yl)-2-(piperidin-1-yl)acetamide] were under 1 µM and under 10 µM.
The like results for `COc1cc(-c2ccc3nc(NC(C)=O)cn3c2C)cnc1N` [Example 167, N-(6-(6-amino-5-methoxypyridin-3-yl)-5-methylimidazo[1,2-a]pyridin-2-yl)acetamide] were, in that order, under 1 µM and under 25 µM.
Consider `C[C@H](N)C(=O)Nc1cn2nc(-c3cnc(N)c(C(F)(F)F)c3)ccc2n1` [Example 239, (S)-2-amino-N-(6-(6-amino-5-(trifluoromethyl)pyridin-3-yl)imidazo[1,2-b]pyridazin-2-yl)propanamide], for which the IC50 in experiment [1] (read-out: PI3K Alpha IC50) was under 1 µM. Besides, in experiment [2], the EC50 was under 10 µM.
Taken in the same sequence, the figures for `CC(C)(C)OC(=O)N1CC(C(=O)Nc2cn3nc(-c4cnc(N)c(C(F)(F)F)c4)ccc3n2)C1` [Example 197, tert-butyl 3-(6-(6-amino-5-(trifluoromethyl)pyridin-3-yl)imidazo[1,2-b]pyridazin-2-ylcarbamoyl) azetidine-1-carboxylate] were under 1 µM and under 10 µM.
On to `CNC(=O)C1CCN(C(=O)Nc2cn3cc(-c4cnc(N)c(C(F)(F)F)c4)ccc3n2)C1` (centres unmarked) [Example 154, N1-(6-(6-amino-5-(trifluoromethyl)pyridin-3-yl)imidazo[1,2-a]pyridin-2-yl)-N3-methylpyrrolidine-1,3-dicarboxamide], for which the IC50 in experiment [1] (read-out: PI3K Alpha IC50) was under 1 µM. The EC50 in experiment [2] was under 25 µM.
In the case of `CCOC(=O)CC(=O)Nc1cn2cc(-c3cnc(N)c(C(F)(F)F)c3)ccc2n1` [Example 255, ethyl 3-(6-(6-amino-5-(trifluoromethyl)pyridin-3-yl)imidazo[1,2-a]pyridin-2-ylamino)-3-oxopropanoate], in experiment [1] (read-out: PI3K Alpha IC50), the half-maximal inhibitory concentration (IC50) is under 1 µM. The half-maximal effective concentration (EC50) in experiment [2] was under 10 µM.
The like results for `Nc1ncc(-c2ccc3nc(NC(=O)c4cccc(F)c4)cn3c2)cc1C(F)(F)F` [Example 192, N-(6-(6-amino-5-(trifluoromethyl)pyridin-3-yl)imidazo[1,2-a]pyridin-2-yl)-3-fluorobenzamide] were, in that order, under 1 µM and under 10 µM.
As for `N#Cc1cccc(C(=O)Nc2cn3cc(-c4cnc(N)c(C(F)(F)F)c4)ccc3n2)c1` [Example 245, N-(6-(6-amino-5-(trifluoromethyl)pyridin-3-yl)imidazo[1,2-a]pyridin-2-yl)-3-cyanobenzamide], in experiment [1] (read-out: PI3K Alpha IC50), the 50% inhibitory concentration (IC50) is under 1 µM. In addition, the EC50 in experiment [2] is under 10 µM.
For the compound `Nc1ncc(-c2ccc3nc(NC(=O)C4CNC4)cn3n2)cc1Cl` [Example 142, N-(6-(6-amino-5-chloropyridin-3-yl)imidazo[1,2-b]pyridazin-2-yl)azetidine-3-carboxamide], the IC50 in experiment [1] (read-out: PI3K Alpha IC50) is under 1 µM. In addition, the EC50 in experiment [2] is under 25 µM.
The like results for `CC(=O)Nc1cn2nc(-c3cnc(N)c(-c4cccc(C(F)(F)F)c4)c3)ccc2n1` [Example 186, N-(6-(6-amino-5-(3-(trifluoromethyl)phenyl)pyridin-3-yl)imidazo[1,2-b]pyridazin-2-yl)acetamide] were, in that order, under 1 µM and under 10 µM.
Taken in the same sequence, the figures for `CC(C)(C)OC(=O)N1CC[C@H]1C(=O)Nc1cn2cc(-c3cnc(N)c(C(F)(F)F)c3)ccc2n1` [Example 169, (S)-tert-butyl 2-(6-(6-amino-5-(trifluoromethyl)pyridin-3-yl)imidazo[1,2-a]pyridin-2-ylcarbamoyl) azetidine-1-carboxylate] were under 1 µM and under 25 µM.
Taken in the same sequence, the figures for `CCC(=O)Nc1cn2cc(-c3cnc(N)c(OC)n3)ccc2n1` [Example 185, N-(6-(5-amino-6-methoxypyrazin-2-yl)imidazo[1,2-a]pyridin-2-yl)propionamide] were under 1 µM and under 10 µM.
Regarding `CC(C)(C)OC(=O)NCC(=O)Nc1cn2cc(-c3cnc(N)c(C(F)(F)F)c3)ccc2n1` [Example 203, tert-butyl 2-(6-(6-amino-5-(trifluoromethyl)pyridin-3-yl)imidazo[1,2-a]pyridin-2-ylamino)-2-oxoethylcarbamate], the IC50 in experiment [1] (read-out: PI3K Alpha IC50) was under 1 µM. Besides, the 50% effective concentration (EC50) in experiment [2] was under 10 µM.
Taken in the same sequence, the figures for `Nc1ncc(-c2ccc3nc(NC(=O)[C@@H]4CCCN4)cn3n2)cc1C(F)(F)F` [Example 129, (S)-N-(6-(6-amino-5-(trifluoromethyl)pyridin-3-yl)imidazo[1,2-b]pyridazin-2-yl)pyrrolidine-2-carboxamide] were under 1 µM and under 10 µM.
As to `CC(=O)Nc1nc2ccc(-c3cnc(N)c(C(F)(F)F)c3)cn2c1CCc1ccccc1` [Example 254, N-(6-(6-amino-5-(trifluoromethyl)pyridin-3-yl)-3-phenethyl-imidazo[1,2-a]pyridin-2-yl)acetamide], the concentration for half-maximal inhibition (IC50) in experiment [1] (read-out: PI3K Alpha IC50) was under 1 µM. In addition, in experiment [2], the 50% effective concentration (EC50) is under 10 µM.
Taken in the same sequence, the figures for `Nc1ncc(-c2ccc3nc(NC(=O)C4CCN4)cn3c2)nc1OCC(F)(F)F` (centres unmarked) [Example 229, N-(6-(5-amino-6-(2,2,2-trifluoroethoxy)pyrazin-2-yl)imidazo[1,2-a]pyridin-2-yl)azetidine-2-carboxamide] were under 1 µM and under 10 µM.
Taken in the same sequence, the figures for `CC(=O)Nc1cn2nc(-c3cnc(N)c(C(=O)NCCN)c3)ccc2n1` [Example 139, 5-(2-acetamido-imidazo[1,2-b]pyridazin-6-yl)-2-amino-N-(2-aminoethyl) nicotinamide] were under 1 µM and under 25 µM.
The like results for `Nc1ncc(-c2ccc3nc(NC(=O)C4CNC4)cn3c2)cc1C(F)(F)F` [Example 256, N-(6-(6-amino-5-(trifluoromethyl)pyridin-3-yl)imidazo[1,2-a]pyridin-2-yl)azetidine-3-carboxamide] were, in that order, under 1 µM and under 10 µM.
For `CC(=O)Nc1cn2cc(-c3cnc(N)c(OC4CNC4)n3)ccc2n1` [Example 149, N-(6-(5-amino-6-(azetidin-3-yloxy)pyrazin-2-yl)imidazo[1,2-a]pyridin-2-yl)acetamide], in experiment [1] (read-out: PI3K Alpha IC50), the IC50 was under 1 µM. For the same compound, the EC50 in experiment [2] is under 25 µM.
Taken in the same sequence, the figures for `CC(=O)Nc1cn2c(C)c(-c3cnc(N)c(OCC(F)(F)F)n3)ccc2n1` [Example 112, N-(6-(5-amino-6-(2,2,2-trifluoroethoxy)pyrazin-2-yl)-5-methylimidazo [1,2-a]pyridin-2-yl)acetamide] were under 1 µM and under 10 µM.

By IC50 is commonly meant the midpoint of a concentration-inhibition curve. In general, EC50 refers to the concentration that produces a half-maximal response.
